Experimental data taken from PubChem BioAssay AID330 (DTP/NCI, 2004).
Values joined by “and” are separate entries in the source; they are usually repeats but may differ in a detail not shown here. Identical values can stand only once. Inconclusive results and toxic doses are left out.

Test system: P388 leukemia ip, CD2F1 mice, survival T/C
Test: NCI In Vivo Anticancer Drug Screen. Data for tumor model P388 Leukemia (intraperitoneal) in CD2F1 (CDF1) mice
Conditions: endpoint: median survival time, higher = longer survival
How it was run: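 Mice carrying the transplanted tumor received test compound or vehicle. Survival was recorded in each group, and the value is the treated-group measurement divided by that of the vehicle-treated control group.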

[1] = dose: 25.0 mg/kg/injection, schedule: Q01DX009 (ip), vehicle: saline with Tween-80
[2] = dose: 50.0 mg/kg/injection, schedule: Q01DX009 (ip), vehicle: saline with Tween-80
[3] = dose: 200.0 mg/kg/injection, schedule: Q01DX009 (ip), vehicle: saline with Tween-80
[4] = dose: 50.0 mg/kg/injection, schedule: Q01DX009 (ip), vehicle: suspension in saline
[5] = dose: 100.0 mg/kg/injection, schedule: Q01DX009 (ip), vehicle: suspension in saline
[6] = dose: 60.0 mg/kg/injection, schedule: Q01DX005 (ip), vehicle: saline with Tween-80
[7] = dose: 120.0 mg/kg/injection, schedule: Q01DX005 (ip), vehicle: saline with Tween-80
[8] = dose: 240.0 mg/kg/injection, schedule: Q01DX005 (ip), vehicle: saline with Tween-80
[9] = dose: 25.0 mg/kg/injection, schedule: Q01DX001 (ip), vehicle: Klucel (hydroxypropylcellulose) (HPC)
[10] = dose: 50.0 mg/kg/injection, schedule: Q01DX005 (ip), vehicle: saline with Tween-80
[11] = dose: 100.0 mg/kg/injection, schedule: Q01DX005 (ip), vehicle: saline with Tween-80
[12] = dose: 200.0 mg/kg/injection, schedule: Q01DX005 (ip), vehicle: saline with Tween-80
[13] = dose: 50.0 mg/kg/injection, schedule: Q01DX005 (ip), vehicle: Klucel (hydroxypropylcellulose) (HPC)
[14] = dose: 100.0 mg/kg/injection, schedule: Q01DX005 (ip), vehicle: Klucel (hydroxypropylcellulose) (HPC)

Q: What does the source list for `CC(C)CNC(=O)OCc1c(COC(=O)NCC(C)C)c(-c2ccc(Cl)c(Cl)c2)n2c1CCC2`?
A: T/C (dose: 6.25 mg/kg/injection, schedule: Q01DX009 (ip), vehicle: distilled water + Tween-80): 111 % of control and 116 % of control; T/C (dose: 25.0 mg/kg/injection, schedule: Q01DX009 (ip), vehicle: distilled water + Tween-80): 158 % of control and 171 % of control; T/C (dose: 50.0 mg/kg/injection, schedule: Q01DX009 (ip), vehicle: distilled water + Tween-80): 182 % of control and 198 % of control; T/C (dose: 100.0 mg/kg/injection, schedule: Q01DX009 (ip), vehicle: distilled water + Tween-80): 180 % of control; T/C (dose: 200.0 mg/kg/injection, schedule: Q01DX009 (ip), vehicle: distilled water + Tween-80): 100 % of control and 92 % of control

Q: How did the T/C (dose: 3.75 mg/kg/injection, schedule: Q01DX005 (ip), vehicle: saline) turn out when `Nc1cc2cccc[n+]2c2ccccc12` was run?
A: 110 % of control

Q: And the T/C (dose: 7.5 mg/kg/injection, schedule: Q01DX005 (ip), vehicle: saline)?
A: 106 % of control

Q: And the T/C (dose: 15.0 mg/kg/injection, schedule: Q01DX005 (ip), vehicle: saline)?
A: 120 % of control

Q: Which T/C [1] does the source give for `NNC(=O)c1ccc(Cl)cc1` here?
A: 91 % of control

Q: What about the T/C [2] of the same compound?
A: 96 % of control

Q: What about the T/C (dose: 100.0 mg/kg/injection, schedule: Q01DX009 (ip), vehicle: saline with Tween-80) of the same compound?
A: 96 % of control

Q: And the T/C [3]?
A: 86 % of control

Q: How did the T/C (dose: 25.0 mg/kg/injection, schedule: Q01DX009 (ip), vehicle: suspension in saline) turn out when `N#CC(NCC1(O)CCCCC1)C(O)c1ccccc1` (configuration not stated) was run?
A: 94 % of control

Q: What about the T/C [4] of the same compound?
A: 108 % of control

Q: What about the T/C [5] of the same compound?
A: 109 % of control

Q: What does the source list for `O=C(O)/C=C/c1c[nH]c(=O)[nH]c1=O`?
A: T/C [6]: 107 % of control; T/C [7]: 100 % of control; T/C [8]: 89 % of control

Q: With `NC(=S)N/N=C/c1ccc(O)cn1` as the compound, how does the T/C (dose: 18.8 mg/kg/injection, schedule: Q01DX009 (ip), vehicle: other) read?
A: 152 % of control and 185 % of control

Q: And the T/C (dose: 18.8 mg/kg/injection, schedule: Q01DX009 (ip), vehicle: saline with Tween-80)?
A: 156 % of control

Q: What about the T/C [9] of the same compound?
A: 118 % of control and 119 % of control

Q: What about the T/C (dose: 25.0 mg/kg/injection, schedule: Q04DX002 (ip), vehicle: Klucel (hydroxypropylcellulose) (HPC)) of the same compound?
A: 113 % of control and 116 % of control

Q: What about the T/C (dose: 25.0 mg/kg/injection, schedule: Q04DX003 (ip), vehicle: Klucel (hydroxypropylcellulose) (HPC)) of the same compound?
A: 115 % of control

Q: What about the T/C (dose: 37.5 mg/kg/injection, schedule: Q01DX009 (ip), vehicle: other) of the same compound?
A: 175 % of control and 221 % of control

Q: What about the T/C (dose: 37.5 mg/kg/injection, schedule: Q01DX009 (ip), vehicle: saline) of the same compound?
A: 172 % of control

Q: And the T/C (dose: 75.0 mg/kg/injection, schedule: Q01DX009 (ip), vehicle: saline with Tween-80)?
A: 173 % of control

Q: And the T/C (dose: 75.0 mg/kg/injection, schedule: Q01DX009 (ip), vehicle: saline)?
A: 160 % of control

Q: Which results are given for `C=C1C(=O)O[C@@H]2C[C@@H](C)[C@@H]3CC(=O)OC[C@@]3(C)C[C@H]12`?
A: T/C (dose: 50.0 mg/kg/injection, schedule: Q01DX001 (ip), vehicle: saline with Tween-80): 100 % of control; T/C (dose: 100.0 mg/kg/injection, schedule: Q01DX001 (ip), vehicle: saline with Tween-80): 117 % of control; T/C (dose: 200.0 mg/kg/injection, schedule: Q01DX001 (ip), vehicle: saline with Tween-80): 118 % of control

Q: With `Cn1c(C(C)(C)O)cnc1[N+](=O)[O-]` as the compound, how does the T/C [2] read?
A: 103 % of control

Q: What about the T/C [3] of the same compound?
A: 94 % of control

Q: Which T/C [10] does the source give for `CC(C)CC(NC(=O)C(CCCCN)N(C(=O)OCc1ccccc1)C(=O)OCc1ccccc1)C(=O)O` (configuration not stated) here?
A: 99 % of control

Q: What about the T/C [11] of the same compound?
A: 99 % of control

Q: And the T/C [12]?
A: 90 % of control

Q: What does the source list for `[N-]=[N+]=NP1(=O)OC(c2ccccc2)=CCN1c1ccccc1` (configuration not stated)?
A: T/C [13]: 105 % of control; T/C [14]: 103 % of control; T/C (dose: 200.0 mg/kg/injection, schedule: Q01DX005 (ip), vehicle: Klucel (hydroxypropylcellulose) (HPC)): 100 % of control

Q: `CCCCCCCCCCCCCC#CC(=O)OC` was tested. Which T/C (dose: 50.0 mg/kg/injection, schedule: Q01DX009 (ip), vehicle: saline) did it give?
A: 104 % of control

Q: And the T/C (dose: 100.0 mg/kg/injection, schedule: Q01DX009 (ip), vehicle: saline)?
A: 106 % of control

Q: And the T/C (dose: 200.0 mg/kg/injection, schedule: Q01DX009 (ip), vehicle: saline)?
A: 106 % of control

Q: Which T/C (dose: 12.5 mg/kg/injection, schedule: Q01DX001 (ip), vehicle: Klucel (hydroxypropylcellulose) (HPC)) does the source give for `COC(=O)/C=C\C=[N+](/[O-])C(C)(C)C` here?
A: 114 % of control

Q: And the T/C [9]?
A: 113 % of control

Q: What about the T/C (dose: 50.0 mg/kg/injection, schedule: Q01DX001 (ip), vehicle: Klucel (hydroxypropylcellulose) (HPC)) of the same compound?
A: 113 % of control

Q: `COC(C)(C)O/N=C(\C[n+]1ccccc1)c1ccccc1` was tested. Which T/C (dose: 3.13 mg/kg/injection, schedule: Q01DX009 (ip), vehicle: water) did it give?
A: 100 % of control

Q: And the T/C (dose: 6.25 mg/kg/injection, schedule: Q01DX009 (ip), vehicle: water)?
A: 104 % of control

Q: And the T/C (dose: 12.5 mg/kg/injection, schedule: Q01DX009 (ip), vehicle: water)?
A: 114 % of control

Q: And the T/C (dose: 25.0 mg/kg/injection, schedule: Q01DX009 (ip), vehicle: water)?
A: 105 % of control

Q: What does the source list for `COC(=Nc1ccccc1)SSC(C)C`?
A: T/C [1]: 115 % of control; T/C [2]: 115 % of control

Q: `N#C/C(=N\NC(=O)c1cccc(C(=O)N/N=C(\C#N)c2ccccc2Cl)n1)c1ccccc1Cl` was tested. Which T/C (dose: 1.5 mg/kg/injection, schedule: Q01DX005 (ip), vehicle: saline with Tween-80) did it give?
A: 92 % of control

Q: And the T/C (dose: 3.0 mg/kg/injection, schedule: Q01DX005 (ip), vehicle: saline with Tween-80)?
A: 94 % of control

Q: And the T/C (dose: 6.0 mg/kg/injection, schedule: Q01DX005 (ip), vehicle: saline with Tween-80)?
A: 94 % of control

Q: What about the T/C (dose: 6.25 mg/kg/injection, schedule: Q01DX005 (ip), vehicle: saline with Tween-80) of the same compound?
A: 91 % of control

Q: And the T/C [12]?
A: 100 % of control

Q: Which results are given for `CC(=O)c1cc(Cl)ccc1OCC(O)CNc1ccccc1C(=O)c1ccccc1` (configuration not stated)?
A: T/C [6]: 103 % of control; T/C [7]: 87 % of control; T/C [8]: 87 % of control

Q: `O=c1oc2nc(-c3ccccc3)[nH]c(=O)c2c(O)c1Cc1ccccc1` was tested. Which T/C (dose: 15.0 mg/kg/injection, schedule: Q01DX005 (ip), vehicle: Klucel (hydroxypropylcellulose) (HPC)) did it give?
A: 97 % of control

Q: And the T/C (dose: 30.0 mg/kg/injection, schedule: Q01DX005 (ip), vehicle: Klucel (hydroxypropylcellulose) (HPC))?
A: 98 % of control

Q: And the T/C (dose: 60.0 mg/kg/injection, schedule: Q01DX005 (ip), vehicle: Klucel (hydroxypropylcellulose) (HPC))?
A: 95 % of control and 96 % of control

Q: Which T/C [13] does the source give for `CCCCc1ccc(C(N)=O)nc1` here?
A: 104 % of control

Q: And the T/C [14]?
A: 99 % of control

Q: `Cc1nn(C(=S)S)c(C)c1N=Nc1ccc(F)cc1` was tested. Which T/C [10] did it give?
A: 103 % of control

Q: And the T/C [11]?
A: 110 % of control

Q: And the T/C [12]?
A: 101 % of control

Q: Which results are given for `CCNc1ccc(F)cc1[N+](=O)[O-]`?
A: T/C (dose: 50.0 mg/kg/injection, schedule: Q04DX003 (ip), vehicle: saline with Tween-80): 100 % of control; T/C (dose: 100.0 mg/kg/injection, schedule: Q04DX003 (ip), vehicle: saline with Tween-80): 100 % of control; T/C (dose: 200.0 mg/kg/injection, schedule: Q04DX003 (ip), vehicle: saline with Tween-80): 86 % of control

Q: With `Cc1cccc(Cl)c1NC(=O)CN(C)CCN1CCCC1` as the compound, how does the T/C (dose: 60.0 mg/kg/injection, schedule: Q01DX005 (ip), vehicle: saline) read?
A: 103 % of control

Q: What about the T/C (dose: 120.0 mg/kg/injection, schedule: Q01DX005 (ip), vehicle: saline) of the same compound?
A: 110 % of control

Q: How did the T/C [4] turn out when `Fc1ccc(NC(=S)SCc2ccc(Cl)c(Cl)c2)c(F)c1` was run?
A: 93 % of control

Q: And the T/C [5]?
A: 100 % of control

Q: And the T/C (dose: 200.0 mg/kg/injection, schedule: Q01DX009 (ip), vehicle: suspension in saline)?
A: 88 % of control

Q: What does the source list for `FC(F)(F)C(OCC1CO1)(c1cccc(C(OCC2CO2)(C(F)(F)F)C(F)(F)F)c1)C(F)(F)F` (configuration not stated)?
A: T/C (dose: 50.0 mg/kg/injection, schedule: Q01DX009 (ip), vehicle: Klucel (hydroxypropylcellulose) (HPC)): 99 % of control; T/C (dose: 100.0 mg/kg/injection, schedule: Q01DX009 (ip), vehicle: Klucel (hydroxypropylcellulose) (HPC)): 100 % of control; T/C (dose: 200.0 mg/kg/injection, schedule: Q01DX009 (ip), vehicle: Klucel (hydroxypropylcellulose) (HPC)): 100 % of control

Q: What does the source list for `CN(C)CCN(Cc1ccco1)c1ccccn1`?
A: T/C (dose: 12.5 mg/kg/injection, schedule: Q01DX005 (ip), vehicle: saline with Tween-80): 92 % of control; T/C (dose: 12.5 mg/kg/injection, schedule: Q01DX005 (ip), vehicle: saline): 96 % of control and 98 % of control; T/C (dose: 25.0 mg/kg/injection, schedule: Q01DX005 (ip), vehicle: saline with Tween-80): 100 % of control; T/C (dose: 25.0 mg/kg/injection, schedule: Q01DX005 (ip), vehicle: saline): 96 % of control and 99 % of control; T/C (dose: 50.0 mg/kg/injection, schedule: Q01DX005 (ip), vehicle: saline): 102 % of control [middle of 4 runs]
